Consider 1 compound from BindingDB's records for doi:10.1021/jm060662k (Abbott Laboratories, 2006).

In general, EC50 refers to the concentration giving half of the maximal effect. A low value points to greater potency.

This assay addresses T1, D(4) dopamine receptor (Homo sapiens, UniProt P21917).
T1 sequence (P21917 whole entry): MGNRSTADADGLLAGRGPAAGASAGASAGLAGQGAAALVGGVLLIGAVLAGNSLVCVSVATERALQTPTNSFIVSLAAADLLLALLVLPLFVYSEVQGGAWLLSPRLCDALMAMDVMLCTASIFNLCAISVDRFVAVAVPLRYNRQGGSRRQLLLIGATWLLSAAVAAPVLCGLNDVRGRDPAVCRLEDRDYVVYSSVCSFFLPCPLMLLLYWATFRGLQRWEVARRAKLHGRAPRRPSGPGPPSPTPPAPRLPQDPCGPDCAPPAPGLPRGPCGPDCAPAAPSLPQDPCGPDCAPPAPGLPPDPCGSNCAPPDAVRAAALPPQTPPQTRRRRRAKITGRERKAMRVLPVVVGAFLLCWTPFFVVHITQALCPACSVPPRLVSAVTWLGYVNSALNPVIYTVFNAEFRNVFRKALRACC
Put plainly: Agonist activity at human D4.4 receptor in HEK293 cells coexpressing G-alpha-qo5 by FLIPR.

In the case of `c1ccc(N2CCN(Cc3nc4ccccc4[nH]3)CC2)nc1` [2-((4-(pyridin-2-yl)piperazin-1-yl)methyl)-1H-benzo[d]imidazole], the EC50 came out at 12 nM.
